Experimental data from patent US8962313B2, “Method for the simultaneous induction of CTL and γδT cell” (Medinet Co., Ltd., priority 2008, dated 2015).

Tests used:
Type in all cases: cell-based, human
CD56 on γδT cells = test: Surface antigen (CD3, Vγ9-TCR, CD56) expression ratio of γδT cells in cultured peripheral blood mononuclear cells, FACS; conditions: Day 13 of culture; 5 μM zoledronic acid, 1,000 U/mL IL-2; Disease Antigen (+) = plus 2 μg/ml Mart-1 (A27L)
Description: Whether the addition of a disease antigen affects the expression ratio of CD56 on γδT Cells or not was examined by the following procedures. CD56 is an isoform of a neural cell adhesion molecule (N-CAM) and an adhesion factor known as a marker for NK cells. It is one of the markers providing indicators of the cytotoxic activity of γδT cells.
1) Peripheral blood (8 ml) was collected from a healthy donor and peripheral blood mononuclear cells were separated therefrom using a density gradient solution for blood cell separation.
(§1) 2) The resultant peripheral blood mononuclear cells were suspended in AIM-V.
3) These peripheral blood mononuclear cells (1.8×10^6/[…]) were seeded in a 12-well plate (SUMILON). Thereto was added 1,000 U/mL IL-2, to which 5 μM zoledronic acid (ZOMETA) and 2 μg/ml Mart-1 (A27L) as a peptide were further added, followed by starting culture under conditions of 37° C. and 5% CO2 concentration.
(§2) 4) In addition, AB serum was added in an amount of 10% after starting the culture.
5) AIM-V containing 1,000 U/ml IL-2 and AB serum were added depending on the proliferation of cells, which were then cultured for up to 14 days.
6) In the cell population obtained after culture for up to 14 days as described above, the percentage of cells expressing TCRVγ9 or the percentage of cells expressing CD-56 were measured using an anti-TCRVγ9 antibody (Beckman Coulter), an anti-CD56 antibody (Beckman Coulter) and an anti-CD3 antibody (Beckman Coulter) with FACS (Epics XL-MCL ADC, Beckman Coulter).

[1] = system: γδT cells in peripheral blood mononuclear cells; test: Induction of γδT cells (TCRVγ9-expressing cells) in cultured peripheral blood mononuclear cells, FACS; conditions: 5 μM zoledronic acid, 1,000 U/mL IL-2, Disease Antigen (+) = plus 2 μg/ml Mart-1 (A27L)
Description: (§3) 1) Peripheral blood (42 ml) was collected from a healthy donor and peripheral blood mononuclear cells were separated therefrom using a density gradient solution for blood cell separation.
as §1
(§4) 3) These peripheral blood mononuclear cells (8×10^6/4 mL) were seeded in a 6-well plate (SUMILON). Thereto was added 1,000 U/mL IL-2, to which 5 μM zoledronic acid (ZOMETA (trade name)) and 2 μg/ml Mart-1 (A27L, sequence: […]) as a peptide were further added, followed by starting culture under conditions of 37° C. and 5% CO2 concentration.
as §2
(§5) 5) AIM-V containing 1,000 U/ml IL-2 and AB serum were added depending on the proliferation of cells, which were then cultured for 14 days.
(§6) 6) In the cell population obtained after culture for 7 days or 14 days as described above, the percentage of disease antigen specific CD8-positive T cells and the percentage of cells expressing TCRVγ9 were measured using an anti-CD8 antibody (BD Pharmingen), T-Select HLA-A*0201 Mart-1 Tetramer […] (MBL), an anti-TCRVγ9 antibody (Beckman Coulter) and an anti-CD3 antibody (Beckman Coulter) with a fluorescence-activated cell sorter (hereinafter referred to as FACS; Epics XL-MCL ADC, Beckman Coulter).

[2] = system: disease antigen specific CD8-positive T cells in peripheral blood mononuclear cells; test: Induction of disease antigen specific CD8-positive T cells (CTLs) in cultured peripheral blood mononuclear cells, FACS with Mart-1 tetramer; conditions: 5 μM zoledronic acid, 1,000 U/mL IL-2, Disease Antigen (+) = plus 2 μg/ml Mart-1 (A27L)
Description: as §3, §1, §4, §2, §5, §6

O=P(O)(O)C(O)(Cn1ccnc1)P(=O)(O)O [zoledronic acid]
Surface Antigen Expression Ratio (%): CD3, Gate Area Live Cells (CD56 on γδT cells): 98.5%
Surface Antigen Expression Ratio (%): CD56, Gate Area CD3 (CD56 on γδT cells): 53.1%
Surface Antigen Expression Ratio (%): CD56, Gate Area Live Cells (CD56 on γδT cells): 54.4%
Surface Antigen Expression Ratio (%): CD56, Gate Area Vγ9 (CD56 on γδT cells): 53.1%
Surface Antigen Expression Ratio (%): Vγ9-TCR, Gate Area Live Cells (CD56 on γδT cells): 97.0%
Expansion Fold (times) of γδT Cells Contained in Mononuclear Cells ([1]; Donor A, 7 days of culture): 50.40 times
Percentage (%) of γδT Cells Contained in Mononuclear Cells ([1]; Donor A, 7 days of culture): 43.7%
Expansion Fold (times) of γδT Cells Contained in Mononuclear Cells ([1]; Donor A, 14 days of culture): 4027.31 times
Percentage (%) of γδT Cells Contained in Mononuclear Cells ([1]; Donor A, 14 days of culture): 80.9%
Expansion Fold (times) of γδT Cells Contained in Mononuclear Cells ([1]; Donor B, 7 days of culture): 31.31 times
Percentage (%) of γδT Cells Contained in Mononuclear Cells ([1]; Donor B, 7 days of culture): 68.2%
Expansion Fold (times) of γδT Cells Contained in Mononuclear Cells ([1]; Donor B, 14 days of culture): 1328.85 times
Percentage (%) of γδT Cells Contained in Mononuclear Cells ([1]; Donor B, 14 days of culture): 99.0%
Expansion Fold (times) of γδT Cells Contained in Mononuclear Cells ([1]; Donor C, 7 days of culture): 4.97 times
Percentage (%) of γδT Cells Contained in Mononuclear Cells ([1]; Donor C, 7 days of culture): 28.6%
Expansion Fold (times) of γδT Cells Contained in Mononuclear Cells ([1]; Donor C, 14 days of culture): 1244.02 times
Percentage (%) of γδT Cells Contained in Mononuclear Cells ([1]; Donor C, 14 days of culture): 89.2%
Expansion Fold (times) of Disease Antigen Specific CD8-Positive T Cells Contained in Mononuclear Cells ([2]; Donor A, 7 days of culture): 0.00 times
Percentage (%) of Disease Antigen Specific CD8-Positive T Cells Contained in Mononuclear Cells ([2]; Donor A, 7 days of culture): 0.00%
Expansion Fold (times) of Disease Antigen Specific CD8-Positive T Cells Contained in Mononuclear Cells ([2]; Donor A, 14 days of culture): 0.00 times
Percentage (%) of Disease Antigen Specific CD8-Positive T Cells Contained in Mononuclear Cells ([2]; Donor A, 14 days of culture): 0.00%
Expansion Fold (times) of Disease Antigen Specific CD8-Positive T Cells Contained in Mononuclear Cells ([2]; Donor B, 7 days of culture): 1.79 times
Percentage (%) of Disease Antigen Specific CD8-Positive T Cells Contained in Mononuclear Cells ([2]; Donor B, 7 days of culture): 0.01%
Expansion Fold (times) of Disease Antigen Specific CD8-Positive T Cells Contained in Mononuclear Cells ([2]; Donor B, 14 days of culture): 0.00 times
Percentage (%) of Disease Antigen Specific CD8-Positive T Cells Contained in Mononuclear Cells ([2]; Donor B, 14 days of culture): 0.00%
Expansion Fold (times) of Disease Antigen Specific CD8-Positive T Cells Contained in Mononuclear Cells ([2]; Donor C, 7 days of culture): 0.57 times
Percentage (%) of Disease Antigen Specific CD8-Positive T Cells Contained in Mononuclear Cells ([2]; Donor C, 7 days of culture): 0.02%
Expansion Fold (times) of Disease Antigen Specific CD8-Positive T Cells Contained in Mononuclear Cells ([2]; Donor C, 14 days of culture): 0.00 times
Percentage (%) of Disease Antigen Specific CD8-Positive T Cells Contained in Mononuclear Cells ([2]; Donor C, 14 days of culture): 0.00%
